Counter-ions that a name gives are not always drawn. Like-named read-outs stand apart in the source and are kept apart here. Bounds are passed on as bounds.

One data set deals with PAM 212 cells. The experiment in a line: Cell growth inhibition assay (surfactants, 3-4 days, Coulter counter), PAM 212. The format is cell-based, mouse. On the procedure: (§1) Established cell lines are the system of choice for the prescreening of unknown compounds for antineoplastic activity. The tumor cell line screen works on the following principle. Cancer cells, if provided with enough nutrients, will grow unchecked in vitro, allowing researchers to grow many types of cancer cells outside the body. To perform an assay, standard amounts of the various cancer cells are placed in individual wells of a microtiter plate, and incubated with the potential antineoplastic compound of interest, for a sufficient period of time to allow for at least a 6-fold control growth, generally 1 to 5 days depending on cell origin. At the end of the incubation period, the cell lines are stained and assayed by a variety of means including, for example, proteins stains or a colorimeter for normal growth, growth inhibition or cytotoxicity. These assays measure a compound's ability to inhibit cell growth and a positive response of the compounds in these assays would be indicative of the therapeutic potential of these compounds. See, for example, the protocols and data presented in Laskin et al., (1979) Cancer Res 39:383-390 for 5-fluorouracil in mouse and human cells in culture.
(§2) A total of ten cell lines were used to evaluate the growth inhibitory potency of the various surfactants. In these studies, human, rat, mouse and bovine cells were used. A spectrum of different tumor cell types were used including those derived from keratinocytes (PAM 212), leukemias (HL-60, U-937 and K-562), an epitheloid carcinoma (HeLa) and melanoma (B-16). The B16 melanoma was used since this is a common cell type used to evaluate antimetastatic activity of test compounds. The effect of the surfactants on three fibroblast cell lines (C3H 10T1/2, NIH 3T3 and R6) were also evaluated for comparison to the tumor cell lines. The activity of the surfactants was also evaluated using pulmonary aortic endothelial cells for effectiveness as antiangiogenic agents.
(§3) PAM 212 cells are a mouse keratinocyte-derived tumor cell line. U-937 cells are a human histiocytic tumor cell line. HeLa cells are an epitheloid tumor cell line. Three murine fibroblast cells lines tested included the mouse fibroblast cell line, C3H 10T1/2, the rat fibroblast cell line R6, and the NIH 3T3 mouse fibroblast cell line. The human leukemia cell line HL-60 and the mouse melanoma B-16 cell were also tested. K-562 cells were from the American Type Culture Collection. All cells were grown in Dulbecco's modified Eagle's medium in a 37° C. incubator in an atmosphere of 5% CO2.
(§4) For growth inhibition assays, cells were seeded at low density (2.5×10^4 cells in 0.5 ml of culture medium) into 24-well tissue culture plates (Falcon Labware, Lincoln Park, N.J.). After 24 hours at 37° C., increasing concentrations (1 to 100 uM) of the surfactants were added to the cells in the culture plate. Control cultures were incubated in the absence of any surfactant. The cells were then incubated for 3-4 days to allow for growth. Cells from individual wells in the culture plate were then removed and duplicate samples taken for counting using a Coulter counter. To remove adherent cells the plates were treated with 0.25% trypsin/0.2% EDTA (GIBCO, Grand Island, N.Y.).

The next data set deals with NIH 3T3 cells. Nature of the data set: Cell growth inhibition assay, NIH 3T3. Format: cell-based, mouse. On the procedure:
as §1, §2, §3, §4

The test system of the next data set is HL-60 cells. Nature of the data set: Cell growth inhibition assay, HL-60. Format: cell-based, human. On the procedure:
as §1, §2, §3, §4

The next data set has as its system U-937 cells. The experiment in a line: Cell growth inhibition assay, U-937. The format is cell-based. Particulars: Homo sapiens. On the procedure: as §1, §2, §3, §4
A further data set concerns ten cell lines. The experiment in a line: Cell growth inhibition assays, panel of cell lines. Format: cell-based, human, rat, mouse and bovine.
Excerpt: as §2, §3, §4

The test system of another data set is R6 cells. Nature of the data set: Cell growth inhibition assay, R6. Format: cell-based, rat. Particulars: Fibroblast, read-out: IC50 (uM conc. inhibiting growth of the cells by 50%). On the procedure: as §1, §2, §3, §4
Another data set concerns K-562 cells. Nature of the data set: Cell growth inhibition assay, K-562. The format is cell-based. Conditions: Homo sapiens. On the procedure: as §1, §2, §3, §4
The next data set concerns HeLa cells. Nature of the data set: Cell growth inhibition assay, HeLa. Format: cell-based. Particulars: read-out: IC50 (uM conc. inhibiting growth of the cells by 50%). On the procedure: as §1, §2, §3, §4
In another data set the test system is C3H 10T1/2 cells. The experiment in a line: Cell growth inhibition assay, C3H 10T1/2. Format: cell-based, mouse. On the procedure:
as §1, §2, §3, §4

Data set [1] in a line: Critical micelle concentration (cmc). Format: physicochemical. The source says: "Critical micelle concentration" or "cmc" refers to the point at which micelle formation begins.
The subject of the next data set is CPA-5 cells. The experiment in a line: Cell growth inhibition assay, CPA-5 endothelial cells. The format is cell-based, bovine. Conditions: Bos taurus, read-out: IC50 (uM conc. inhibiting growth of the cells by 50%).
Excerpt: as §2, §3, §4
The compounds were tested as inhibitors of growth in the bovine aortic endothelial cell line CPA-5 as taught in Example 2 in order to evaluate the possibility that they may be anti-angiogenesis agents. A hallmark of angiogenesis is the outgrowth of endothelial cells which are required in the formation of new blood vessels. This process is a critical factor in the vascularization of tumors. Inhibition of neovascularization limits the growth of tumors and would be an effective means of treating cancer. FIG. 3 illustrates that three of the compounds, 8-3S, 12-5B and 12-1B, had no activity against the CPA-5 cell line in the concentration range tested (IC50 =>100 uM), while only relatively high concentrations of 12-3S (IC50 =70 uM) were effective in inhibiting the growth of CPA-5 cells. As indicated above, with several exceptions, these compounds were also not very effective in inhibiting the growth of each of the other cell types.

The subject of the next data set is B-16 cells. Nature of the data set: Cell growth inhibition assay, B-16 melanoma. Format: cell-based, mouse. On the procedure: as §1, §2, §3, §4
In the next data set the test system is battery of cell lines. Conditions: 1988 report; cited from earlier work.
In another data set the test system is liver. Particulars: rats fed ethionine; cited from earlier work.
[2] abbreviates: PAM212, PAM 212 mouse keratinocyte-derived tumor cells, 3-4 days, read-out: IC50 (uM conc. inhibiting growth of the cells by 50%).
[3] abbreviates: NIH3T3, NIH 3T3 mouse fibroblasts, 3-4 days, read-out: IC50 (uM conc. inhibiting growth of the cells by 50%).
[4] abbreviates: HL-60 human leukemia cells, 3-4 days, read-out: IC50 (uM conc. inhibiting growth of the cells by 50%).
Where [5] appears, read: U-937, U-937 human histiocytic tumor cells, 3-4 days, read-out: IC50 (uM conc. inhibiting growth of the cells by 50%).
Where [6] appears, read: K562, K-562 leukemia cells, 3-4 days, read-out: IC50 (uM conc. inhibiting growth of the cells by 50%).
[7] abbreviates: Homo sapiens, HeLa, HeLa cells, 3-4 days.
The mark [8] stands for this setting: C3H 10T1/2 mouse fibroblasts, 3-4 days, read-out: IC50 (uM conc. inhibiting growth of the cells by 50%).
Setting [9] is: CPA-5 bovine aortic endothelial cells, 3-4 days.
Where [10] appears, read: B16, B-16 mouse melanoma cells, 3-4 days, read-out: IC50 (uM conc. inhibiting growth of the cells by 50%).
The mark [11] stands for this setting: Mus musculus, NIH3T3, read-out: IC50 (uM conc. inhibiting growth of the cells by 50%).
[12] abbreviates: Homo sapiens, HL-60, read-out: IC50 (uM conc. inhibiting growth of the cells by 50%).
Where [13] appears, read: U-937, read-out: IC50 (uM conc. inhibiting growth of the cells by 50%).
Where [14] appears, read: K562, read-out: IC50 (uM conc. inhibiting growth of the cells by 50%).
Setting [15] is: Mus musculus, C3H 10T1/2, read-out: IC50 (uM conc. inhibiting growth of the cells by 50%).
Where [16] appears, read: Mus musculus, B16, read-out: IC50 (uM conc. inhibiting growth of the cells by 50%).

By IC50 is commonly meant the concentration that gives 50% inhibition. For `CCCCCCCC[N+](C)(C)CCCS(=O)(=O)[O-]` [8-3S, N-octyl-N, N-dimethyl-3-ammonio-1-propanesulfonate], the IC50 in the data set with PAM 212 cells (setting [2]) is above 100 µM; with NIH 3T3 cells (setting [3]) it was above 100 µM; in the data set on HL-60 cells (setting [4]) it was above 100 µM; in the data set with U-937 cells (setting [5]), above 100 µM; with ten cell lines (all / all other cell lines tested, read-out: IC50 over the cell lines tested (range or bound)), above 100 µM; in the data set on R6 cells (R6 rat fibroblasts, 3-4 days), 78 µM. Also, the IC50 with K-562 cells (setting [6]), with HeLa cells (setting [7]), in the data set with C3H 10T1/2 cells (setting [8]), in the data set with CPA-5 cells (setting [9]) and in the data set on B-16 cells (setting [10]) was above 100 µM in each case. Also, the cmc in data set [1] is 200,000 uM.
`CCCCCCCCCCCC[N+](C)(C)CC(=O)[O-]` [12-1B, N-(carboxymethyl)-N,N-dimethyl-1-dodecanaminium hydroxide inner salt]: the IC50 in the data set on NIH 3T3 cells (setting [11]) was above 100 µM; in the data set on HL-60 cells (setting [12]), 37 µM; in the data set on U-937 cells (setting [13]) it was above 100 µM; in the data set with R6 cells (Rattus norvegicus) it was above 100 µM; in the data set on K-562 cells (setting [14]) it was 19 µM; in the data set on HeLa cells (Homo sapiens, HeLa), 39 µM. The IC50 was above 100 µM in the data set with C3H 10T1/2 cells (setting [15]), above 100 µM in the data set with CPA-5 cells and 90 µM in the data set on B-16 cells (setting [16]). In the data set on battery of cell lines, the “inhibition and toxicity at the concentrations tested” value is “inhibitory and toxic”. The cmc in [1] is given as 2,400 uM.
`CCCCCCCCCCCC[N+](C)(C)CCCS(=O)(=O)[O-]` [12-3S, N-dodecyl-N,N-dimethyl-3-ammonio-1-propanesulfonate]: the IC50 in the data set with PAM 212 cells (setting [2]) is 3 µM; with NIH 3T3 cells (setting [3]) it was above 100 µM; in the data set with HL-60 cells (setting [4]), 9.3 µM; in the data set on U-937 cells (setting [5]) it was above 100 µM; in the data set with R6 cells (R6 rat fibroblasts, 3-4 days), 45 µM; in the data set on K-562 cells (setting [6]) it was above 100 µM. For the same compound, the IC50 in the data set with HeLa cells (HeLa cells, 3-4 days) was 58 µM; with HeLa cells (setting [7]), 68 µM; in the data set with C3H 10T1/2 cells (setting [8]), 6.5 µM; in the data set with CPA-5 cells (setting [9]), 70 µM; in the data set on B-16 cells (setting [10]), above 100 µM. Also, the “inhibition and toxicity at the concentrations tested” value in the data set with battery of cell lines is “noninhibitory and nontoxic”. The cmc in data set [1] is listed as 2,200 uM.
As for `CCCCCCCCCCCC[N+](C)(C)CCCCCC(=O)[O-]` [12-5B, N-(5-carboxypentyl)-N,N-dimethyl-1-dodecanaminium hydroxide inner salt], the IC50 with PAM 212 cells (setting [2]) is 60 µM; in the data set with NIH 3T3 cells (setting [3]), above 100 µM; in the data set with HL-60 cells (setting [4]), 11 µM; in the data set with U-937 cells (setting [5]) it was above 100 µM; in the data set with R6 cells (R6 rat fibroblasts, 3-4 days), 78 µM; in the data set on K-562 cells (setting [6]), above 100 µM. Also, the IC50 in the data set with HeLa cells (setting [7]) was 75 µM; in the data set with C3H 10T1/2 cells (setting [8]), above 100 µM; in the data set on CPA-5 cells (setting [9]) it was above 100 µM; in the data set on B-16 cells (setting [10]), above 100 µM. Besides, the cmc in data set [1] is 5,100 uM.
For the compound `CCCCCCCCCCCCCCCC[N+](C)(C)CC(=O)[O-]` [16-1B, N-(carboxymethyl)-N,N-dimethyl-1-hexadecanaminium hydroxide inner salt], the IC50 with PAM 212 cells (Mus musculus, PAM212, read-out: IC50 (uM conc. inhibiting growth of the cells by 50%)) amounted to 50 µM; with NIH 3T3 cells (setting [11]), 60 µM; in the data set on HL-60 cells (setting [12]) it was 8 µM; with U-937 cells (setting [13]), 23 µM; with R6 cells (Rattus norvegicus), 45 µM; in the data set with K-562 cells (setting [14]), 32 µM. Moreover, the IC50 in the data set on HeLa cells (Homo sapiens, HeLa) amounted to 16 µM; in the data set with C3H 10T1/2 cells (setting [15]), 54 µM; with CPA-5 cells it was 30 µM; with B-16 cells (setting [16]), 52 µM. In addition, the “activity against all of the cell lines tested” value in the data set on ten cell lines (growth inhibition) is given as “effective against all of the cell lines”. The compound also displayed a cmc in [1] of 14 µM.
With `CCCCCCCCCCCCCCCC[N+](C)(C)CCCS(=O)(=O)[O-]` [16-3S, N-hexadecyl-N,N-dimethyl-3-ammonio-1-propanesulfonate], the IC50 with PAM 212 cells (setting [2]) came out at 7.5 µM; in the data set on NIH 3T3 cells (setting [3]), 40 µM; with HL-60 cells (setting [4]), 1.6 µM; with U-937 cells (setting [5]), 6 µM; in the data set with R6 cells (R6 rat fibroblasts, 3-4 days) it was 14 µM; with K-562 cells (setting [6]), 15 µM. In addition, the IC50 amounted to 2.2 µM in the data set with HeLa cells (setting [7]), 3.3 µM in the data set with C3H 10T1/2 cells (setting [8]), 17 µM with CPA-5 cells (setting [9]) and 54 µM with B-16 cells (setting [10]). In addition, the cmc in data set [1] was 28 µM.
For the compound `C[N+](C)(C)CC(=O)O` [betaine], the “prevention of chronic morphological changes in the liver, including cancer formation” value with liver is “relatively effective in preventing chronic morphological changes in the liver, including cancer formation”.

The values are drawn from patent US5545667A, “Methods for treating neoplasms with betaines” (The Clorox Company, priority 1994, dated 1996).
